Experimental data as given in patent publication US10144915B2, “Reprogramming fibroblasts into cardiomyocytes” (The J. David Gladstone Institutes, a testamentary trust …, priority 2013, dated 2018).
pIC50: −log10 of the molar value.

Tests used:
adenylate cyclase 1 = adenylate cyclase 1 (Homo sapiens, UniProt Q08828); conditions: cited from earlier work
[1] = tested on: cardiomyocytes generated from mouse tail tip fibroblasts (TTFs); assay: β-adrenergic and muscarinic stimulation of induced cardiomyocytes (beating, Ca2+ transients); assay type: cell-based; conditions: applied locally
Method: Myocytes were loaded with 5 μM Fluo-4 AM (Molecular Probes, Invitrogen Corp, Carlsbad, Calif.), a Ca^++ indicator dye for 20 minutes at room temperature followed by 20 minutes in dye-free extracellular solution to allow for Fluo-4 de-esterification prior to commencing recordings. Ca^++ transients were recorded via a standard filter set (#49011 ET, Chroma Technology Corp., Bellows Falls, Vt.) and a photomultiplier-based recording system (lonOptix PMT400, Milton, Mass.). Fluorescence was recorded simultaneously from an entire myocyte cluster. Between sampling periods, excitation light was blocked by a shutter (CS35; Vincent Associates, Rochester, N.Y.) and background fluorescence was recorded after removing the cell(s) from the field of view at the end. Where applicable, 1 μM isoproterenol (Iso) or 25 μM carbachol (Cch) were applied locally (to the cell cluster of interest) using a perfusion pencil (AutoMate Scientific, Berkeley, Calif.).
Intact […] nervous system responses to hormones and transmitters are one of the most critical characteristics of normal cardiomyocytes. […] After washing out carbachol, cells resumed contracting and the Ca^2+ transients immediately returned to normal (FIG. 4H).

SAPK2/p38 = SAPK2/p38 (Homo sapiens, UniProt Q16539); conditions: CK1 and ALK5 inhibitor versus SAPK2/p38; cited from earlier work
SAPK2/p38, sequence (Q16539 whole entry): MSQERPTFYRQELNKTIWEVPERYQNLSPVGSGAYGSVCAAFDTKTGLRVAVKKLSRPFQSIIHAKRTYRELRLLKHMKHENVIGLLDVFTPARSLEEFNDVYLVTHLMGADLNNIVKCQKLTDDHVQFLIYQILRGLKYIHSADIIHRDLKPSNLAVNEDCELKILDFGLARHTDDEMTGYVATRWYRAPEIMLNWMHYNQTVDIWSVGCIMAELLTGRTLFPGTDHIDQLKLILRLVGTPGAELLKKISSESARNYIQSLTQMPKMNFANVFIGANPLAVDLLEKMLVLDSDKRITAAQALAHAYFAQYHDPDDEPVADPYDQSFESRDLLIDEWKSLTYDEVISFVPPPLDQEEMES

adenylate cyclase 1, sequence (Q08828 whole entry): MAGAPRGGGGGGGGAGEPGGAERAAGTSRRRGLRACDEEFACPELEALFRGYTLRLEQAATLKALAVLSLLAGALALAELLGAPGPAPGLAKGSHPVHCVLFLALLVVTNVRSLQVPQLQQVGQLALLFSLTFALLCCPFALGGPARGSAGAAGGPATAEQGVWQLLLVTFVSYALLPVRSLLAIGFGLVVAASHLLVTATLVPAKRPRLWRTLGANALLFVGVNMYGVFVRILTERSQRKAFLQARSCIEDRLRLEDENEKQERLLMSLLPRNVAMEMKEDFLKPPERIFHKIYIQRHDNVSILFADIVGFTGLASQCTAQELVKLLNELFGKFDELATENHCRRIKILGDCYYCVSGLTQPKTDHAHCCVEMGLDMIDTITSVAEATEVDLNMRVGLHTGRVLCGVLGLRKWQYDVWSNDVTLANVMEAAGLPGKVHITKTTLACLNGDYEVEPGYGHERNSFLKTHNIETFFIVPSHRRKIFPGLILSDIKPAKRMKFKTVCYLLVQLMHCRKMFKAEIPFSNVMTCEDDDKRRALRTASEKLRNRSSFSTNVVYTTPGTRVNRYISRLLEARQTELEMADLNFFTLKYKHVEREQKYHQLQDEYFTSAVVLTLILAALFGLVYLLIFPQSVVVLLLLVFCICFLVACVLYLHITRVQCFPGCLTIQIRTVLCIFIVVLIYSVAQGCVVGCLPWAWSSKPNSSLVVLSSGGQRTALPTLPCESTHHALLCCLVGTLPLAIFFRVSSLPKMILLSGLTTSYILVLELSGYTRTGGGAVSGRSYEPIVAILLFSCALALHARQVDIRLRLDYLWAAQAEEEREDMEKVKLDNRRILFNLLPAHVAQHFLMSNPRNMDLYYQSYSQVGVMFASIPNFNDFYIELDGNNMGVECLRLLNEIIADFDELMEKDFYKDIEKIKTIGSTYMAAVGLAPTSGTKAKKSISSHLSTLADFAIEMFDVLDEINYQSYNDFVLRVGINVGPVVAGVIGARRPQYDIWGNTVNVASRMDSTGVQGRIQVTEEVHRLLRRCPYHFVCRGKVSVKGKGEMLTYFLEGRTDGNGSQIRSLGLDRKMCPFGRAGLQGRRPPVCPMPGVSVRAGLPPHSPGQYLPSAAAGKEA

C=C[C@@]1(C)CC(=O)[C@]2(O)[C@@]3(C)[C@@H](O)CCC(C)(C)[C@@H]3[C@H](O)[C@H](OC(C)=O)[C@@]2(C)O1 [Forskolin]
pIC50 (adenylate cyclase 1): 6.82 to 7.40

C[N+](C)(C)CCOC(N)=O [carbachol]
frequency of cell contracting and spontaneous calcium transients ([1]; 25 μM, reversible on wash-out): opposite effect

NC(=O)c1ccc(-c2nc(-c3ccc4c(c3)OCCO4)c(-c3ccccn3)[nH]2)cc1 [D 4476, 4-[4-(2,3-Dihydro-1,4-benzodioxin-6-yl)-5-(2-pyridinyl)-1H-imidazol-2-yl]benzamide]
selectivity over SAPK2/p38 (SAPK2/p38): greater than 20 fold

CC(C)NCC(O)c1ccc(O)c(O)c1 (stereo not shown) [isoproterenol]
frequency of cell contracting and spontaneous calcium transients ([1]; 1 μM): significantly increased
